Laboratory results taken from PubChem BioAssay AID743394 (Broad Institute, 2014).
Activity calls are given as the source filed them.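 How the source made its calls: active means 40% activation versus positive control reached by fitted dose-response curve at or below highest valid tested dose; inconclusive means poor fit quality, or flat fit with activation between 30% and 70%; inactive means the rest.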

Experiment: inactive X chromosome reactivation in XiGFP fibroblasts, dose response, imaging, 68-5-11 mouse fibroblasts, GFP, cherry-pick (AID 743394);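 further: sensitizer 5-aza-dC present in the wells at 0.5 mM final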
Details: 68-5-11 mouse fibroblast XiGFP reporter, % GFP-positive imaging, 3 d, at 19.5 µM (top of the series)
[1] = cells co-treated with 5-aza-dC sensitizer, scaled: neutral wells 0, ellipticine wells 100

SMILES | activation [1] | activation
Nc1c(C(=O)O)cnn1-c1ccc([N+](=O)[O-])cc1 | 0.022% (inactive) | 
O=C(N/N=C/c1ccc([N+](=O)[O-])o1)c1cc2ccccc2o1 | 4.43% (inactive) | 
CCOC(=O)Cc1csc(NC(=O)Nc2ccc(F)cc2)n1 | 0.472% (inactive) | 
CC1CN(Cc2c(O)ccc3c2oc(=O)c2ccccc23)CC(C)O1 (configuration not stated) | -0.012% (inactive) | 
COc1ccc(C(=O)N/N=C/c2cc(Br)ccc2O)cc1OC | -0.037% (inactive) | 
CCc1nc(C)cn1S(=O)(=O)c1ccc([N+](=O)[O-])cc1 | -0.053% (inactive) | 
CC(C)(C)C1CCNC(=O)CC1 (configuration not stated) | 0.008% (inactive) | 
CN(C)CCN(C(=O)c1ccc(S(=O)(=O)N(C)c2ccccc2)cc1)c1nc2cc3c(cc2s1)OCCO3 | -0.008% (inactive) | 
C[C@@H]1C[C@H]2[C@@H]3CCC4=CC(=O)C=C[C@]4(C)[C@@]3(F)[C@@H](O)C[C@]2(C)[C@H]1C(=O)CO | 0.179% (inactive) | 
COP(=S)(OC)Oc1ccc(Sc2ccc(OP(=S)(OC)OC)cc2)cc1 |  | 0.028% (inactive)
O=C(C[C@H]1CC[C@H]2[C@@H](COC[C@@H](O)CN2C(=O)Nc2ccccc2)O1)NCCc1ccncc1 | 0.207% (inactive) | 
Cc1ccsc1/C=N/n1c(-c2cc(-c3ccccc3)n[nH]2)n[nH]c1=S | 0.001% (inactive) | 
CC(C)c1ccc(N2C(=O)/C(=C/N(C)C)SC2=S)cc1 | 0.088% (inactive) | 
CCN(CC)CCCN=Cc1c(O)n(-c2cccc(C)c2)c(=O)c2ccccc12 | -0.005% (inactive) | 
Nc1ccc(-c2nc3ccccc3[nH]2)cc1 | -0.039% (inactive) | 
O=C(c1ccc(S(=O)(=O)c2ccc(Cl)cc2)cc1)N1CCOCC1 | 0.117% (inactive) | 
CCOC(=O)N1CCN(C(=O)Cn2ccc3c(OC)cccc3c2=O)CC1 | 0.07% (inactive) | 
COc1ccc(-c2ccc(C#N)c(SCC(=O)NCc3ccco3)n2)cc1OC | 2.59% (inactive) | 
CCOC(=O)c1ccc(NC(=O)C2(N3C(=O)c4ccccc4C3=O)CCCC2)cc1 | 0.082% (inactive) | 
Cc1ccc(-c2nc3ccc(Br)cn3c2Cc2ccccc2C(F)(F)F)cc1 | 0.06% (inactive) | 
Cc1ccc(S(=O)(=O)Nc2ccc3c(c2)C(=O)N([C@H](C)CO)C[C@@H](C)[C@@H](CN(C)Cc2ccc(Cl)c(Cl)c2)OCCCC[C@H](C)O3)cc1 | -0.031% (inactive) | 
CC(C)(C)N(Cc1ccccc1)C(=O)COC(=O)c1ccc(N2CCCC2=O)cc1 | 0.165% (inactive) | 

SMILES | activation [1] | activation
CN1c2ccc(-c3ccc(C#N)cc3)cc2[C@@H]2[C@@H](CCN2C(=O)NC2CCCCC2)[C@H]1CO | 0.002% (inactive) | 
COc1ccc(-n2ncc(Cl)c(Cl)c2=O)cc1 | -0.032% (inactive) | 
CCC1Oc2ccc(C)cc2N(CC(=O)N2CCCC2)C1=O (configuration not stated) | 0.113% (inactive) | 
COc1ccccc1N=Nc1c(C)[nH]n(-c2ccccc2)c1=O | -0.075% (inactive) | 
CC1CCN(C(=O)Cn2nnc(-c3ccccc3)n2)CC1 | 0.315% (inactive) | 
Cc1cc(C(=O)Nc2ccc(Cl)c(S(=O)(=O)N3CCOCC3)c2)c2ccccc2n1 | -0.053% (inactive) | 
COc1ccccc1NC(=S)N(CCCN1CCOCC1)Cc1cccs1 | -0.076% (inactive) | 
CC(=NNc1ccc2ccccc2n1)c1ccccn1 | 1.93% (inactive) | 
COc1ccc(S(=O)(=O)Nc2cccc3c2O[C@H](CN(C)S(=O)(=O)c2cn(C)cn2)[C@H](C)CN([C@H](C)CO)C3=O)cc1 | -0.035% (inactive) | 
Cc1ccc2[nH]c(=S)n(-c3cccnc3)c(=O)c2c1 |  | -0.035% (inactive)
CC(C)N1C(=O)C(=O)N(CC(=O)N2CCc3ccccc32)C1=O | -0.031% (inactive) | 
COc1ccc(CCn2c(C)cc(C(=O)CN3C(=O)C(=O)N(Cc4ccco4)C3=O)c2C)cc1 | 0.899% (inactive) | 
C[C@H](CO)N1C[C@H](C)[C@H](CN(C)Cc2ccccc2)Oc2ccc(NS(C)(=O)=O)cc2C1=O | -0.035% (inactive) | 
COCCCn1c(N)c(C(=O)Nc2ccccc2)c2nc3ccccc3nc21 |  | -0.127% (inactive)
COc1ccc2c(c1)C(C)=CC(C)(C)N2S(=O)(=O)c1ccc(Br)cc1 | 0.373% (inactive) | 
COc1ccc(/C=C2\CCc3ccccc3C2=O)cc1CN1CCOCC1 | 0.231% (inactive) | 
COc1ccc(C2C(=O)c3ccccc3C2=Nc2ccc(Br)cc2)cc1 (configuration not stated) | -0.066% (inactive) | 
Nc1nc(Nc2ccc(Cl)cc2)c(NC=O)c(=O)[nH]1 | -0.075% (inactive) | 
O=c1c(Cl)c(Cl)cnn1Cc1nnc(-c2ccccc2Br)o1 | -0.053% (inactive) | 
CC(=O)N(C)C[C@@H]1Oc2ncc(-c3cccnc3)cc2C(=O)N([C@@H](C)CO)C[C@@H]1C | 0.082% (inactive) | 
COC(=O)Nc1ccc(S(=O)(=O)N2CCCC(C(=O)N3CCN(C)CC3)C2)cc1 (configuration not stated) | 0.221% (inactive) | 
O=C(O)/C=C/C(=O)Nc1ccc(-n2nccc2C(F)(F)F)cc1 | 1.34% (inactive) | 

SMILES | activation [1] | activation
O=C(O)c1ccccc1C1Nc2ccccc2C(=O)N1CCCN1CCOCC1 (configuration not stated) | 0.018% (inactive) | 
COC(=O)CCN1CCC(c2cc(-c3cccc(C(F)(F)F)c3)n[nH]2)CC1 | 0.056% (inactive) | 
O=C(NCCO)/C(=C/c1ccco1)NC(=O)c1ccco1 | -0.047% (inactive) | 
C[C@@H]1CN([C@H](C)CO)C(=O)c2cc(NS(=O)(=O)c3ccccc3)ccc2O[C@@H](C)CCCCO[C@@H]1CN(C)Cc1ccc2c(c1)OCO2 | 0% (inactive) | 
Cc1ccc(NC(=O)c2ncn(CCCNCCCN(C)C)n2)cc1C | 0.041% (inactive) | 
Nc1nc(C2CCOCC2)cs1 | -0.032% (inactive) | 
CC1CN(C(=O)/C=C/c2ccc([N+](=O)[O-])s2)CC(C)O1 (configuration not stated) | -0.075% (inactive) | 
O=[N+]([O-])c1ccccc1-c1ccc(C(=S)N2CCN(c3ccccc3)CC2)o1 | 0.417% (inactive) | 
COc1cc(/C=C(\C#N)c2nc3ccccc3o2)ccc1O | 1.85% (inactive) | 
COc1ccc(C(=O)CN2Cc3ccccc3C2=N)cc1 | 0.166% (inactive) | 
CC(C)CC#Cc1ccc([C@@H]2[C@@H](CO)N3C(=O)CN(C(=O)c4cccc(F)c4)C[C@H]23)cc1 | 0.027% (inactive) | 
C[C@H](NC(=O)C[C@H]1CC[C@@H](NC(=O)Cc2ccccn2)[C@@H](CO)O1)c1ccccc1 | 0.043% (inactive) | 
CCN(CC(=O)Nc1sc2c(c1C#N)CCCC2)CC(=O)NC1CCS(=O)(=O)C1 (configuration not stated) | -0.032% (inactive) | 
CC(=O)C1=NN(c2ccc(Cl)cc2)C(c2ccc3c(c2)OCO3)N(C(C)=O)N1C (configuration not stated) | -0.032% (inactive) | 
CCCCNc1nc2c(-c3ccccc3)nnn2c2ccccc12 | 0.101% (inactive) | 
Cc1cc(-c2nc(C)c(-c3nnc(SCC(=O)Nc4ccc(Cl)cc4)n3C)s2)no1 | 0.023% (inactive) | 
O=[N+]([O-])c1ccc(Sc2nnnn2-c2ccccc2)nc1 | -0.121% (inactive) | 
CC(C)CC(=O)Nc1c2c(nn1-c1ccc(F)cc1)CSC2 | 0.542% (inactive) | 
CCCNC(=O)N1CC2(CN(S(C)(=O)=O)C2)c2c(n(C)c3cc(OC)ccc23)[C@H]1CO | 0.016% (inactive) | 
NNC(=O)c1sc(-c2ccccc2)cc1N | 0.249% (inactive) | 
CCOC(=O)N1CCN(Cc2cc(Cl)c3cccnc3c2O)CC1 | -0.05% (inactive) | 
O=c1[nH]nc(SCCS(=O)(=O)c2ccc(F)cc2)n1-c1ccccc1C(F)(F)F | -0.024% (inactive) | 

SMILES | activation [1] | activation
O=C1Nc2ccccc2/C1=C/c1ccccc1Cl | -0.034% (inactive) | 
COc1ccc(-c2ccc3[nH]c4c(c3c2)CCN2C(=O)[C@@H]([C@H](C)O)[C@@H](N(C)C(=O)Nc3ccc(F)cc3)C[C@@H]42)cc1 | 1.96% (inactive) | 
Cc1onc(-c2c(Cl)cccc2Cl)c1-c1nc2cc(Cl)ccc2c(=O)o1 | -0.032% (inactive) | 
COc1ccccc1NC(=O)N[C@H]1C=C[C@@H](CC(=O)N[C@@H](C)c2ccccc2)O[C@@H]1CO | -0.011% (inactive) | 
Cc1cccc(NCc2ccc(O)c3ncccc23)c1C | 0.288% (inactive) | 
CCOc1ccc(N2C(=O)CC(Sc3nc(O)c(CC)c(=O)[nH]3)C2=O)cc1 (configuration not stated) | 0.001% (inactive) | 
COc1ccc(C2=C(c3ccccc3)OC(OC)c3cc(F)ccc32)cn1 (configuration not stated) | 0.027% (inactive) | 
CC1=NN(c2ccc(C)c(C)c2)C(=O)/C1=C\C=C\c1ccc([N+](=O)[O-])o1 | -0.033% (inactive) | 
COc1ccc2c3c(n(C)c2c1)[C@H](CO)N(Cc1ccccc1F)CC31CCN(CC2CC2)CC1 | 0.046% (inactive) | 
CO[C@@H]1CN(C)C(=O)c2cc(NS(C)(=O)=O)ccc2OC[C@H](C)N(C(=O)C2CCCC2)C[C@H]1C | 0.988% (inactive) | 
COc1cccc(-c2ccc(C3[C@@H]4CN(C(=O)C5CCCCC5)C[C@H]3N4)cc2)c1 (some centres not stated) | 2.76% (inactive) | 
O=C(O)c1ccccc1NS(=O)(=O)c1ccc(N/N=C/c2cccc(O)c2O)c([N+](=O)[O-])c1 | -0.035% (inactive) | 
CCOC(=O)Nc1cc2c(c(N)n1)N=C(c1ccccc1)CN2 | -0.053% (inactive) | 
CO[C@H]1CN(C)C(=O)c2ccc(NC(=O)Cc3ccccc3)cc2OC[C@@H](C)N(C)C[C@H]1C | -0.035% (inactive) | 
COc1cc(CN2CCC(C(=O)NCC(C)(C)CN(C)C)CC2)ccc1OCc1ccccc1 | -0.029% (inactive) | 
C[C@H](CO)N1C[C@H](C)[C@H](CN(C)C(=O)Nc2ccc(F)cc2)Oc2ncc(C#Cc3cccc(F)c3)cc2C1=O | -0.031% (inactive) | 
CC(C)c1ccc(CN2CCN(C(=O)CSc3nnnn3C3CC3)CC2)cc1 | 0.2% (inactive) | 
CC(C)OC(=O)/C(=C\c1cccnc1)NC(=O)c1ccccc1 | -0.024% (inactive) | 
COc1ccc(NC(=O)COc2ccc(C)c(C)c2)cc1S(=O)(=O)N1CCCCC1 | 0.164% (inactive) | 
COc1cc(NC(C)CCc2ccccc2)cc(OC)c1OC (configuration not stated) | -0.035% (inactive) | 
Brc1ccc(-c2cn3ccccc3n2)cc1 | -0.039% (inactive) | 
